Measurements reported in PubChem BioAssay AID248 (DTP/NCI, 2004).
Where “and” joins values, the source holds several entries; their conditions need not be identical. Equal entries are not always repeated. Toxic doses and inconclusive results are not listed.

Test system: L1210 leukemia ip in BDF1 mice, survival T/C
Experiment: NCI In Vivo Anticancer Drug Screen. Data for tumor model L1210 Leukemia (intraperitoneal) in B6D2F1 (BDF1) mice
Conditions: endpoint: mean survival time, higher = longer survival
In short: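 Tumor cells were implanted, animals were treated, and survival was followed. The result divides the treated measurement by the vehicle-control measurement.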

[1] = dose: 100.0 mg/kg/injection, schedule: Q01DX009 (ip), vehicle: saline with Tween-80
[2] = dose: 200.0 mg/kg/injection, schedule: Q01DX009 (ip), vehicle: saline with Tween-80
[3] = dose: 400.0 mg/kg/injection, schedule: Q01DX009 (ip), vehicle: saline with Tween-80
[4] = dose: 100.0 mg/kg/injection, schedule: Q01DX009 (ip), vehicle: Klucel (hydroxypropylcellulose) (HPC)
[5] = dose: 200.0 mg/kg/injection, schedule: Q01DX009 (ip), vehicle: Klucel (hydroxypropylcellulose) (HPC)

## O=c1[nH]c(=O)n(C2CC(O)C(CO)O2)cc1I (stereo not given)
dose: 62.5 mg/kg/injection, schedule: Q#A X Z (ip), vehicle: other
  T/C: 119 % of control
dose: 125.0 mg/kg/injection, schedule: Q01DX009 (ip), vehicle: saline
  T/C: 103 % of control and 113 % of control
dose: 125.0 mg/kg/injection, schedule: Q01DX010 (ip), vehicle: saline
  T/C: 114 % of control and 117 % of control
dose: 125.0 mg/kg/injection, schedule: Q03DX Z (ip), vehicle: other
  T/C: 119 % of control
dose: 150.0 mg/kg/injection, schedule: Q01DX009 (ip), vehicle: carboxymethylcellulose (CMC)
  T/C: 167 % of control
dose: 150.0 mg/kg/injection, schedule: Q01DX009 (ip), vehicle: saline
  T/C: 114 % of control
dose: 178.0 mg/kg/injection, schedule: Q01DX Z (ip), vehicle: other
  T/C: 124 % of control
dose: 178.0 mg/kg/injection, schedule: Q01DX Z (ip), vehicle: saline
  T/C: 112 % of control
dose: 250.0 mg/kg/injection, schedule: Q01DX001 (ip), vehicle: other
  T/C: 105 % of control and 108 % of control
dose: 250.0 mg/kg/injection, schedule: Q01DX009 (ip), vehicle: saline
  T/C: 111 % of control and 118 % of control
dose: 250.0 mg/kg/injection, schedule: Q01DX010 (ip), vehicle: saline
  T/C: 114 % of control
dose: 250.0 mg/kg/injection, schedule: Q03DX Z (ip), vehicle: other
  T/C: 104 % of control
dose: 250.0 mg/kg/injection, schedule: Q07DX Z (ip), vehicle: other
  T/C: 110 % of control
dose: 267.0 mg/kg/injection, schedule: Q01DX Z (ip), vehicle: other
  T/C: 116 % of control
dose: 267.0 mg/kg/injection, schedule: Q01DX Z (ip), vehicle: saline
  T/C: 122 % of control
dose: 300.0 mg/kg/injection, schedule: Q01DX005 (ip), vehicle: carboxymethylcellulose (CMC)
  T/C: 151 % of control
dose: 300.0 mg/kg/injection, schedule: Q01DX009 (ip), vehicle: saline
  T/C: 121 % of control
dose: 304.0 mg/kg/injection, schedule: Q## X024 (ip), vehicle: carboxymethylcellulose (CMC)
  T/C: 150 % of control
dose: 400.0 mg/kg/injection, schedule: Q01DX Z (ip), vehicle: other
  T/C: 113 % of control
dose: 500.0 mg/kg/injection, schedule: Q01DX001 (ip), vehicle: other
  T/C: 110 % of control and 113 % of control
dose: 500.0 mg/kg/injection, schedule: Q01DX009 (ip), vehicle: saline
  T/C: 116 % of control and 120 % of control
dose: 500.0 mg/kg/injection, schedule: Q01DX010 (ip), vehicle: saline
  T/C: 111 % of control and 122 % of control
dose: 500.0 mg/kg/injection, schedule: Q03DX Z (ip), vehicle: other
  T/C: 116 % of control
dose: 500.0 mg/kg/injection, schedule: Q07DX Z (ip), vehicle: other
  T/C: 113 % of control
dose: 500.0 mg/kg/injection, schedule: Q#A X Z (ip), vehicle: other
  T/C: 152 % of control
dose: 600.0 mg/kg/injection, schedule: Q01DX005 (ip), vehicle: carboxymethylcellulose (CMC)
  T/C: 107 % of control
dose: 600.0 mg/kg/injection, schedule: Q01DX009 (ip), vehicle: carboxymethylcellulose (CMC)
  T/C: 92 % of control
dose: 600.0 mg/kg/injection, schedule: Q## X002 (ip), vehicle: carboxymethylcellulose (CMC)
  T/C: 158 % of control
dose: 600.0 mg/kg/injection, schedule: Q## X003 (ip), vehicle: carboxymethylcellulose (CMC)
  T/C: 170 % of control
dose: 600.0 mg/kg/injection, schedule: Q## X016 (ip), vehicle: carboxymethylcellulose (CMC)
  T/C: 158 % of control
dose: 600.0 mg/kg/injection, schedule: Q## X024 (ip), vehicle: carboxymethylcellulose (CMC)
  T/C: 182 % of control
dose: 900.0 mg/kg/injection, schedule: Q01DX Z (ip), vehicle: saline
  T/C: 164 % of control
dose: 1000.0 mg/kg/injection, schedule: Q01DX001 (ip), vehicle: other
  T/C: 110 % of control and 116 % of control
dose: 1000.0 mg/kg/injection, schedule: Q01DX009 (ip), vehicle: saline
  T/C: 111 % of control and 117 % of control
dose: 1000.0 mg/kg/injection, schedule: Q01DX010 (ip), vehicle: saline
  T/C: 111 % of control and 124 % of control
dose: 1000.0 mg/kg/injection, schedule: Q03DX Z (ip), vehicle: other
  T/C: 117 % of control
dose: 1000.0 mg/kg/injection, schedule: Q07DX Z (ip), vehicle: other
  T/C: 105 % of control
dose: 1200.0 mg/kg/injection, schedule: Q01DX001 (ip), vehicle: carboxymethylcellulose (CMC)
  T/C: 161 % of control
dose: 1200.0 mg/kg/injection, schedule: Q## X002 (ip), vehicle: carboxymethylcellulose (CMC)
  T/C: 187 % of control
dose: 1200.0 mg/kg/injection, schedule: Q## X003 (ip), vehicle: carboxymethylcellulose (CMC)
  T/C: 211 % of control
dose: 1200.0 mg/kg/injection, schedule: Q## X008 (ip), vehicle: carboxymethylcellulose (CMC)
  T/C: 157 % of control
dose: 1200.0 mg/kg/injection, schedule: Q## X016 (ip), vehicle: carboxymethylcellulose (CMC)
  T/C: 167 % of control
dose: 1200.0 mg/kg/injection, schedule: Q## X024 (ip), vehicle: carboxymethylcellulose (CMC)
  T/C: 160 % of control
dose: 2000.0 mg/kg/injection, schedule: Q01DX010 (ip), vehicle: saline
  T/C: 119 % of control
dose: 2400.0 mg/kg/injection, schedule: Q01DX001 (ip), vehicle: carboxymethylcellulose (CMC)
  T/C: 175 % of control
dose: 2400.0 mg/kg/injection, schedule: Q## X002 (ip), vehicle: carboxymethylcellulose (CMC)
  T/C: 161 % of control
dose: 2400.0 mg/kg/injection, schedule: Q## X003 (ip), vehicle: carboxymethylcellulose (CMC)
  T/C: 101 % of control
dose: 2400.0 mg/kg/injection, schedule: Q## X008 (ip), vehicle: carboxymethylcellulose (CMC)
  T/C: 188 % of control
dose: 2400.0 mg/kg/injection, schedule: Q## X016 (ip), vehicle: carboxymethylcellulose (CMC)
  T/C: 232 % of control

## CCCCOC(=O)c1cocc1C(=O)OCCCC
[1]
  T/C: 99 % of control
dose: 100.0 mg/kg/injection, schedule: Q04DX003 (ip), vehicle: saline with Tween-80
  T/C: 98 % of control
[2]
  T/C: 92 % of control
dose: 200.0 mg/kg/injection, schedule: Q04DX003 (ip), vehicle: saline with Tween-80
  T/C: 104 % of control
[3]
  T/C: 90 % of control
dose: 400.0 mg/kg/injection, schedule: Q04DX003 (ip), vehicle: saline with Tween-80
  T/C: 93 % of control

## CCC(=O)C(C)C(=O)Nc1ccccc1 (stereo not given)
dose: 100.0 mg/kg/injection, schedule: Q01DX001 (ip), vehicle: carboxymethylcellulose (CMC)
  T/C: 102 % of control
dose: 200.0 mg/kg/injection, schedule: Q01DX001 (ip), vehicle: carboxymethylcellulose (CMC)
  T/C: 94 % of control
dose: 400.0 mg/kg/injection, schedule: Q01DX001 (ip), vehicle: carboxymethylcellulose (CMC)
  T/C: 100 % of control

## C[CH2][Sn](=[S])[S][Sn](=[S])[CH2]C
dose: 100.0 mg/kg/injection, schedule: Q04DX002 (ip), vehicle: saline with Tween-80
  T/C: 102 % of control
dose: 200.0 mg/kg/injection, schedule: Q04DX002 (ip), vehicle: saline with Tween-80
  T/C: 94 % of control
dose: 400.0 mg/kg/injection, schedule: Q04DX002 (ip), vehicle: saline with Tween-80
  T/C: 97 % of control

## CCNC(c1ccccc1)C(O)c1ccccc1 (stereo not given)
dose: 50.0 mg/kg/injection, schedule: Q04DX002 (ip), vehicle: Klucel (hydroxypropylcellulose) (HPC)
  T/C: 94 % of control
[4]
  T/C: 104 % of control
dose: 100.0 mg/kg/injection, schedule: Q04DX002 (ip), vehicle: Klucel (hydroxypropylcellulose) (HPC)
  T/C: 105 % of control
[5]
  T/C: 102 % of control

## C[n+]1cccc(C(=O)NN=C2CCCCC2)c1
dose: 100.0 mg/kg/injection, schedule: Q01DX001 (ip), vehicle: saline with Tween-80
  T/C: 93 % of control
dose: 200.0 mg/kg/injection, schedule: Q01DX001 (ip), vehicle: saline with Tween-80
  T/C: 102 % of control
dose: 400.0 mg/kg/injection, schedule: Q01DX001 (ip), vehicle: saline with Tween-80
  T/C: 94 % of control

## CC(C)(C)N=C1OC(=O)c2ccccc21
[1]
  T/C: 107 % of control
[2]
  T/C: 98 % of control
[3]
  T/C: 94 % of control

## O=C1OC2=C(c3ccccc3)C(=O)OC2=C1c1ccccc1
dose: 100.0 mg/kg/injection, schedule: Q01DX001 (ip), vehicle: saline
  T/C: 97 % of control
dose: 200.0 mg/kg/injection, schedule: Q01DX001 (ip), vehicle: saline
  T/C: 104 % of control
dose: 400.0 mg/kg/injection, schedule: Q01DX001 (ip), vehicle: saline
  T/C: 95 % of control

## C(/C=N/Nc1cnccn1)=N\Nc1cnccn1
[4]
  T/C: 89 % of control
[5]
  T/C: 89 % of control
dose: 400.0 mg/kg/injection, schedule: Q01DX009 (ip), vehicle: Klucel (hydroxypropylcellulose) (HPC)
  T/C: 110 % of control

## CC(=O)COc1ccc(C(=O)Cl)cc1
dose: 100.0 mg/kg/injection, schedule: Q04DX003 (ip), vehicle: Klucel (hydroxypropylcellulose) (HPC)
  T/C: 95 % of control
dose: 200.0 mg/kg/injection, schedule: Q04DX003 (ip), vehicle: Klucel (hydroxypropylcellulose) (HPC)
  T/C: 102 % of control
dose: 300.0 mg/kg/injection, schedule: Q04DX003 (ip), vehicle: Klucel (hydroxypropylcellulose) (HPC)
  T/C: 106 % of control
